The source of these data is ChEMBL document CHEMBL4033723, “Succinamide derivatives of melampomagnolide B and their anti-cancer activities” (2017).

Format in all cases: functional
Assay [1] is described as follows: Induction of apoptosis in human M9-ENL1 cells assessed as cell death after 24 hrs by Annexin V/PI or 7-AAD staining based flow cytometry. As to conditions: M9-ENL1, 24 h, read-out: LC50 (the source's name). (In general: A flow cytometer gives signals particle by particle.)
The next assay relates to SK-OV-3. Description: Growth inhibition of human SKOV3 cells after 48 hrs by sulforhodamine B assay. The following applies: SK-OV-3, 48 h. A general note: The SRB assay estimates cell density from bound dye.
The next assay relates to COLO 205. Description: Growth inhibition of human COLO205 cells after 48 hrs by sulforhodamine B assay. As to conditions: COLO 205, 48 h.
The test system of a further assay is NCI-H522. The assay is described as follows: Growth inhibition of human NCI-H522 cells after 48 hrs by sulforhodamine B assay. As to conditions: NCI-H522, 48 h.
The nature of assay [2]: Growth inhibition of human M9-ENL1 cells after 24 hrs by trypan blue assay. As to conditions: M9-ENL1, 24 h.
The next assay concerns MCF7. Description: Growth inhibition of human MCF7 cells after 48 hrs by sulforhodamine B assay. The following applies: MCF7, 48 h.
Another assay relates to CCRF-CEM. The assay is described as follows: Growth inhibition of human CCRF-CEM cells after 48 hrs by sulforhodamine B assay.

SMILES strings stand for the structures. A value given as a limit tells only on which side of the number the result lay.

In the case of `C=C1C(=O)O[C@H]2[C@H]1CC/C(COC(=O)CCC(=O)NCCCCCCCNC(=O)CCC(=O)OC/C1=C/CC[C@@]3(C)O[C@H]3[C@H]3OC(=O)C(=C)[C@@H]3CC1)=C\CC[C@@]1(C)O[C@@H]21`, the CC50 in assay [1] worked out at 15 µM.

As to `C=C1C(=O)O[C@H]2[C@H]1CC/C(COC(=O)CCC(=O)NCCCCCNC(=O)CCC(=O)OC/C1=C/CC[C@@]3(C)O[C@H]3[C@H]3OC(=O)C(=C)[C@@H]3CC1)=C\CC[C@@]1(C)O[C@@H]21`, the CC50 in assay [1] is 19 µM. On to `C=C1C(=O)O[C@H]2[C@H]1CC/C(COC(=O)CCC(=O)NCCCCCCNC(=O)CCC(=O)OC/C1=C/CC[C@@]3(C)O[C@H]3[C@H]3OC(=O)C(=C)[C@@H]3CC1)=C\CC[C@@]1(C)O[C@@H]21`, for which, in assay [1], the CC50 amounted to 21 µM. The same measure, in the same setting: as for `C=C1C(=O)O[C@H]2[C@H]1CC/C(COC(=O)CCC(=O)NCCc1ccccn1)=C\CC[C@@]1(C)O[C@@H]21`, the figure is 13.5 µM. For orientation: GI50 means the concentration giving 50% growth inhibition. Read a low GI50 as greater sensitivity of the cells. For `C=C1C(=O)O[C@H]2[C@H]1CC/C(COC(=O)CCC(=O)NCc1ccc(Cl)nc1)=C\CC[C@@]1(C)O[C@@H]21`, the CC50 in assay [1] amounted to 14 µM. Besides, the GI50 in the assay on SK-OV-3 came out at 28 µM; in the assay on COLO 205, 3.3 µM; with NCI-H522, 1.6 µM; in assay [2], 6.5 µM; in the assay with MCF7 it was 3.2 µM; in the assay on CCRF-CEM it was 2.2 µM. As to `C=C1C(=O)O[C@H]2[C@H]1CC/C(COC(=O)CCC(=O)NCCCNC(=O)CCC(=O)OC/C1=C/CC[C@@]3(C)O[C@H]3[C@H]3OC(=O)C(=C)[C@@H]3CC1)=C\CC[C@@]1(C)O[C@@H]21`, the CC50 in assay [1] was 10 µM. Still for that read-out and setting: then `C=C1C(=O)O[C@H]2[C@H]1CC/C(COC(=O)CCC(=O)NCCCCNC(=O)CCC(=O)OC/C1=C/CC[C@@]3(C)O[C@H]3[C@H]3OC(=O)C(=C)[C@@H]3CC1)=C\CC[C@@]1(C)O[C@@H]21`, with 19 µM; and `C=C1C(=O)O[C@H]2[C@H]1CC/C(COC(=O)CCC(=O)NCc1ccccn1)=C\CC[C@@]1(C)O[C@@H]21`, with 14 µM; and `C=C1C(=O)O[C@H]2[C@H]1CC/C(COC(=O)CCC(=O)N1CCN(C)CC1)=C\CC[C@@]1(C)O[C@@H]21`, with 8.1 µM.

On to `C=C1C(=O)O[C@H]2[C@H]1CC/C(COC(=O)CCC(=O)NCCCCCCCCCCNC(=O)CCC(=O)OC/C1=C/CC[C@@]3(C)O[C@H]3[C@H]3OC(=O)C(=C)[C@@H]3CC1)=C\CC[C@@]1(C)O[C@@H]21`, for which, in assay [1], the CC50 was determined as 12 µM.

Consider `C=C1C(=O)O[C@@H]2C3O[C@]3(C)CC/C=C(\C)CC[C@@H]12` (some centres undefined), for which the CC50 in assay [1] turned out to be 7.5 µM. Same read-out and setting: as for `C=C1C(=O)O[C@H]2[C@H]1CC/C(COC(=O)CCC(=O)Nc1nc(N)n[nH]1)=C\CC[C@@]1(C)O[C@@H]21`, the figure is 60 µM.

With `C=C1C(=O)O[C@H]2[C@H]1CC/C(COC(=O)CCC(=O)Nc1cccc(N)n1)=C\CC[C@@]1(C)O[C@@H]21`, in assay [1], the CC50 was found to be 12 µM.

`C=C1C(=O)O[C@H]2[C@H]1CC/C(COC(=O)CCC(=O)NCCCn1ccnc1)=C\CC[C@@]1(C)O[C@@H]21`: in assay [1], the CC50 was above 20 µM.

Regarding `C=C1C(=O)O[C@H]2[C@H]1CC/C(COC(=O)CCC(=O)N1CCC(F)(F)CC1)=C\CC[C@@]1(C)O[C@@H]21`, in assay [1], the CC50 came out at 5.2 µM. On the same count and under the same terms, then `C=C1C(=O)O[C@H]2[C@H]1CC/C(COC(=O)CCC(=O)Nc1n[nH]c(SC)n1)=C\CC[C@@]1(C)O[C@@H]21`, with 13 µM. The same measure, in the same setting: then `C=C1C(=O)O[C@H]2[C@H]1CC/C(COC(=O)CCC(=O)NCCN1CCOCC1)=C\CC[C@@]1(C)O[C@@H]21`, with 20 µM; and `C=C1C(=O)O[C@H]2[C@H]1CC/C(COC(=O)CCC(=O)NCCCN1CCOCC1)=C\CC[C@@]1(C)O[C@@H]21`, with 14 µM.
